From publication PMC12348470, “Amino Acid Substitutions in Bacteriocin Lactolisterin BU Reveal Functional Domains Involved in Biological Activity Against Staphylococcus aureus” (Molecules, 2025)
Ends that are not written are not given here.

How the values were obtained:
Caco-2 cells = tested on: Caco-2 cells
Experimental: Caco-2 cells were used in the toxicity assay to model the human intestinal epithelium, as they closely mimic the morphology and function of enterocytes. This makes them a relevant in vitro system for evaluating the potential cytotoxic effects of bacteriocins upon oral exposure or gastrointestinal application.
The cytotoxic effects of peptides were evaluated on human colorectal adenocarcinoma Caco-2 cells (ATCC HTB-37). The cells were cultured in Dulbecco’s Modified Eagle Medium (DMEM, high glucose; Gibco, Thermo Fisher Scientific) supplemented with 10% fetal bovine serum (FBS) and 1% penicillin–streptomycin. The cells were maintained at 37 °C in a humidified incubator with 5% CO2 and subcultured twice weekly, according to Popovic et al..
Cytotoxic effects of peptides on Caco-2 cells were assessed using a lactate dehydrogenase (LDH) release assay according to the manufacturer’s protocol (Lactate Dehydrogenase Cytotoxicity Assay Kit (Thermo Fisher Scientific, Waltham, MA, USA)). The Caco-2 cells were seeded in 96-well flat-bottom plates at a density of 2 × 10^4 cells per well and allowed to reach confluency over 48 h at 37 °C and 5% CO2.
The cells were then incubated for 24 h. Untreated cells (incubated with medium only) served as a negative control, and cells treated with LDH Lysis buffer were used as a positive control.
Following peptide treatment, 50 µL of cell culture supernatant was transferred from each well into a new 96-well plate. LDH reaction mixture (50 µL) was added to each well and incubated at room temperature for 30 min in the dark. The absorbance was measured at 490 nm using a microplate reader.
Cytotoxicity (%) was calculated using the following formula: Cytotoxicity (%) = Asample − Anegative/Apositive − Anegative × 100
The assay was performed in triplicate.

Danio rerio embryos = test: Zebrafish embryo toxicity (OECD TG 236); format: in vivo; conditions: for LC50 (zebrafish embryos): exposure to 120 hpf, 28 °C, 10 embryos/well, triplicate, LL.2 model, mean ± SD, n = 3
Experimental: Embryos were exposed to six different increasing concentrations of each peptide for 5 consecutive days (120 hfp) and examined for survival and signs of toxicity, following toxicological endpoints (Table S1).
The toxicity of synthetic peptide variants was assessed in vivo using Danio rerio embryos, in accordance with OECD Test Guideline 236 (Fish Embryo Acute Toxicity Test) and the European Directive 2010/63/EU on the protection of animals used for scientific purposes, according to Aleksic et al.. All procedures were conducted at the Institute of Molecular Genetics and Genetic Engineering, University of Belgrade.
Wild-type adult zebrafish were maintained under standard laboratory conditions (28 °C; 14:10 h light–dark cycle). Embryos were obtained via pairwise mating and collected within 1 h post-fertilization (hpf). At 5 hpf, the embryos were randomly distributed into 24-well plates (10 embryos/well, 1 mL embryo medium per well) containing embryo water (0.2 mg/mL Instant Ocean® salts in distilled water). Peptides were tested at five concentrations (e.g., 1.56–25 µg/mL) in triplicate. Peptide solvent was used as a negative control. The plates were incubated at 28 °C without media replacement.
Embryonic development was monitored using an inverted microscope (Zeiss Stemi 508; Carl Zeiss Microscopy GmbH, Jena, Germany). Lethal endpoints and sublethal malformations were scored according to OECD guidelines (Table S1). At 120 hpf, the embryos were anesthetized using 0.1% tricaine, photographed, and euthanized via freezing at −20 °C for 24 h.
LC50 values were estimated using the log–logistic binomial model (LL.2) from the drc package in R.
Dose–response curves and LC50 values were estimated using the log–logistic binomial model (LL.2) from the drc package in R [79] (version 2025.05.0). Mortality data were modeled as proportions of dead individuals relative to total individuals tested, and 95% confidence intervals for LC50 were calculated using the delta method.

Sequence: MWARILGTVAKYGPKAVSWAWQHKWELINMGDLAFRYIQRIWG [Peptide G3A]
- TI (LC50/MIC), Caco-2 (Caco-2 cells): 7.03
- concentration at which yolk sac retention was observed (Danio rerio embryos; 120 hpf): 6250 ng/mL
- LC50 (zebrafish embryos) (Danio rerio embryos): 5.69 µg/mL

Sequence: MWGRILATVAKYGPKAVSWAWQHKWELINMGDLAFRYIQRIWG [Peptide G7A]
- TI (LC50/MIC), Caco-2 (Caco-2 cells): 5.11
- concentration at which yolk sac retention was observed (Danio rerio embryos; 120 hpf): 3130 ng/mL
- concentration inducing lethal egg coagulation (Danio rerio embryos; 120 hpf): 6250 ng/mL
- LC50 (zebrafish embryos) (Danio rerio embryos): 2.98 µg/mL

Sequence: MWGRILGTVAKYAPKAVSWAWQHKWELINMGDLAFRYIQRIWG [Peptide G13A]
- TI (LC50/MIC), Caco-2 (Caco-2 cells): 1.20
- concentration at which yolk sac retention was observed (Danio rerio embryos; 120 hpf): 1560 ng/mL
- concentration causing general growth delay (Danio rerio embryos; 120 hpf): 1560 ng/mL
- concentration causing hemorrhaging (Danio rerio embryos; 120 hpf): 1560 ng/mL
- concentration causing pericardial edema (Danio rerio embryos; 120 hpf): 1560 ng/mL
- concentration inducing lethal egg coagulation (Danio rerio embryos; 120 hpf): 1560 ng/mL
- embryo mortality, in words (Danio rerio embryos; 120 h dose–response): nearly complete mortality at concentrations ≥3.1 µg/mL
